We go through 44 compounds from patent US5972975A, “Substituted 2-aminopyridines as inhibitors of nitric oxide synthase” (priority 1997, dated 1999).

One assay has as its target ncNOS (Homo sapiens, UniProt P29475). Nature of the assay: biochemical.
Another assay concerns the target ecNOS (Homo sapiens, UniProt P29474). Nature of the assay: NOS activity: L-[3H]citrulline formation from L-[3H]arginine, ecNOS. The assay is classed as biochemical. The protocol: (§1) NOS activity is measured as the formation of L-[2,3,4,5-^3 H]Citrullinefrom L-[2,3,4,5-^3 H]Arginine. The incubation buffer (100 μL) contained; 100 mM TES, pH 7.5, 5 μM FAD, 5 μM FMN, 10 μM BH4, 0.5 mM NADPH, 0.5 mM DTT, 0.5 mg/mL BSA, 2 mM CaCl2, 10 μg/mL calmodulin (bovine), 1 μM L-Arg, 0.2 μCi L-[2,3,4,5-^3 H]Arg, and the inhibitor in aqueous DMSO (max. 5%). The reaction is initiated by addition of enzyme. Incubations are performed at room temperature for 30 minutes and stopped by the addition of an equal volume of quenching buffer consisting of 200 mM sodium citrate, pH 2.2, 0.02% sodium azide. Reaction products are separated by passing through a cation exchange resin and quantitated as cpm by scintillation counting.

The next assay concerns the target iNOS (Homo sapiens, UniProt P35228). Nature of the assay: NOS activity: L-[3H]citrulline formation from L-[3H]arginine, iNOS. The assay is classed as biochemical. As for the experimental part:
as §1

[1] abbreviates: Table 1, ncNOS, 1 μM L-Arg, pH 7.5, room temperature, 30 minutes, read-out: ncNOS (IC50).
Where [2] appears, read: Table 1, ecNOS, 1 μM L-Arg, pH 7.5, room temperature, 30 minutes, read-out: ecNOS (IC50).
The mark [3] stands for this setting: Table 1, iNOS, 1 μM L-Arg, pH 7.5, room temperature, 30 minutes, read-out: iNOS (IC50).
Where [4] appears, read: Table 2, ncNOS, 1 μM L-Arg, pH 7.5, room temperature, 30 minutes, read-out: ncNOS (IC50).
[5] abbreviates: Table 2, ecNOS, 1 μM L-Arg, pH 7.5, room temperature, 30 minutes, read-out: ecNOS (IC50).
[6] abbreviates: Table 2, iNOS, 1 μM L-Arg, pH 7.5, room temperature, 30 minutes, read-out: iNOS (IC50).

By IC50 is commonly meant the concentration that gives 50% inhibition.

Structures can show the parent of a compound that is named as a salt. Where two headings read alike, the source gives them in different places.

ncNOS, sequence (P29475 whole entry): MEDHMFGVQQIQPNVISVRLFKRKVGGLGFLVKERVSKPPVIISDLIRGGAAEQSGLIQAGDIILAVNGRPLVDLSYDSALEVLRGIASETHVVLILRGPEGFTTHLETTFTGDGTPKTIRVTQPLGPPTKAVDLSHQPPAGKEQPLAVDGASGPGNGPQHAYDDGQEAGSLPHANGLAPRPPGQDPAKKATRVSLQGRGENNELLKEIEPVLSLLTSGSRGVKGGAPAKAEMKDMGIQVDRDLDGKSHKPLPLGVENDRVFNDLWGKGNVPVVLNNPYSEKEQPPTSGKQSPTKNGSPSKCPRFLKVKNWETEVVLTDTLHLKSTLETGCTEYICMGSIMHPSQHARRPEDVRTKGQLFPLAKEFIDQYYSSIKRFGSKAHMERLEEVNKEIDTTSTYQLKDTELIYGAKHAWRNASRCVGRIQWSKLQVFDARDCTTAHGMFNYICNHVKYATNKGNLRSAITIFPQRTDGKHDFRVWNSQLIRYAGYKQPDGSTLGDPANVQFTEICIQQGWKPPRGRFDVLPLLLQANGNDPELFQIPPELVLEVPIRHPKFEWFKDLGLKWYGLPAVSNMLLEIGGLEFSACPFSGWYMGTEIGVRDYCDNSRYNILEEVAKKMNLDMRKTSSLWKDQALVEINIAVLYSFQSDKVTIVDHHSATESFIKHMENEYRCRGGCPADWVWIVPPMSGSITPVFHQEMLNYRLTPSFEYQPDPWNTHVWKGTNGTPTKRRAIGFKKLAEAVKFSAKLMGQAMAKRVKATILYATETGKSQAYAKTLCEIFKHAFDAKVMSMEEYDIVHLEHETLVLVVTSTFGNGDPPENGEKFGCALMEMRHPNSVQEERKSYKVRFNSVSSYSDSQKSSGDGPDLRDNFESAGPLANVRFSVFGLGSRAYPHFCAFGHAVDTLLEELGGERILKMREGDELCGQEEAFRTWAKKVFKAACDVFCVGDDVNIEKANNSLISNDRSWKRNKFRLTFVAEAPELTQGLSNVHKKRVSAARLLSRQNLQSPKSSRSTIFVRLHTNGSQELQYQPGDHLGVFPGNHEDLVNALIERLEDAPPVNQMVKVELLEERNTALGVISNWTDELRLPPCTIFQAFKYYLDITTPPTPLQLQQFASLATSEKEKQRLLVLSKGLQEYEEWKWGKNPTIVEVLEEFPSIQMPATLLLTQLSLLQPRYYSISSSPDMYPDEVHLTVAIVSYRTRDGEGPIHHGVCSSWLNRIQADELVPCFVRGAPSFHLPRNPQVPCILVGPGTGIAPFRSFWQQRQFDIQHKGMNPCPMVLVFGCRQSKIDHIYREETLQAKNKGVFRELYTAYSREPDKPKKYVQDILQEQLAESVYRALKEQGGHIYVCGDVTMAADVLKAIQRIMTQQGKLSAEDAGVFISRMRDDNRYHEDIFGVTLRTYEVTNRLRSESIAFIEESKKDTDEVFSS

Turning to `Nc1ccccn1` [Example 1], the IC50 on ncNOS (setting [1]) is under 10 µM; at ecNOS (setting [2]), under 10 µM; at iNOS (setting [3]) it was 1.4 µM.
As for `Cc1cccnc1N` [Example 2], the IC50 on ecNOS (setting [2]) worked out at 1.2 µM; on iNOS (setting [3]), 3.4 µM.
The like results for `Cc1ccc(N)nc1` [Example 4] were, in that order, 3.1 µM and 1.3 µM.
For `Cc1cccc(N)n1` [Example 5], the IC50 at ecNOS (setting [2]) turned out to be 0.82 µM.
Consider `Cc1cc(C)nc(N)c1` [Example 6], for which, at iNOS (setting [3]), the half-inhibitory concentration (IC50) was 0.108 µM.
On to `Nc1cc(C(F)(F)F)ccn1` [Example 8], for which the IC50 at ecNOS (setting [2]) amounted to 73 µM; on iNOS (setting [3]), 13.2 µM.
`Nc1ncccc1O` [Example 9]: the results for the IC50 on ncNOS (setting [1]), on ecNOS (setting [2]) and on iNOS (setting [3]) were over 50 µM, over 50 µM and 47.5 µM, respectively.
As to `Nc1cccnc1N` [Example 10], the values for the IC50 on ecNOS (setting [2]) and on iNOS (setting [3]) were 1.9 µM and under 10 µM, respectively.
Consider `Nc1cc(-c2ccccc2)ccn1` [Example 11], for which the IC50 at iNOS (setting [3]) was over 50 µM.
As for `Nc1cc(Cc2ccccc2)ccn1` [Example 12], at iNOS (setting [3]), the 50% inhibitory concentration (IC50) is over 50 µM.
Turning to `Cc1ccnc(N)c1C` [Example 13, 2-Amino-3,4-dimethylpyridine], the IC50 on ecNOS (setting [2]) is under 1 µM; at iNOS (setting [3]), 0.076 µM.
`CC(C)(C)c1ccnc(N)c1` [Example 14, 2-Amino-4-tert-butylpyridine]: the IC50 at iNOS (setting [3]) was over 50 µM.
On to `Nc1cc(Cl)ccn1` [Example 15, 2-Amino-4-chloropyridine], for which the IC50 at ncNOS (setting [1]) is under 10 µM; at ecNOS (setting [2]) it was under 10 µM; on iNOS (setting [3]), under 1 µM.
For the compound `N#Cc1ccnc(N)c1` [Example 16, 2-Amino-4-cyanopyridine], the IC50 on iNOS (setting [3]) is over 50 µM.
Consider `Cc1ccnc(N)c1N` [Example 17, 2,3-Diamino-4-methylpyridine], for which the IC50 was determined as 0.081 µM on ecNOS (setting [2]) and 0.058 µM at iNOS (setting [3]).
Regarding `Cc1ccnc(NCc2ccccc2)c1` [Example 18, 2-Benzylamino-4-methylpyridine], the figures for the IC50 at ecNOS (setting [2]) and at iNOS (setting [3]) were under 50 µM and 2.4 µM, respectively.
On to `Cc1ccnc(N)c1NC(=O)NCc1ccccc1` [Example 19, 2-Amino-3-benzylurea-4-picoline], for which the IC50 at ncNOS (setting [4]) was over 50 µM; on ecNOS (setting [5]) it was over 50 µM; on iNOS (setting [6]), under 10 µM.
For `COc1cccnc1N` [Example 20, 2-Amino-3-methoxypyridine], the results for the IC50 at ncNOS (setting [4]), at ecNOS (setting [5]) and at iNOS (setting [6]) were under 50 µM, under 50 µM and over 50 µM, respectively.
Take `CSc1c(C)ccnc1N` [Example 21, 2-Amino-3-methylthio-4-picoline]: the IC50 was under 10 µM at ncNOS (setting [4]), under 50 µM at ecNOS (setting [5]) and under 50 µM at iNOS (setting [6]).
Consider `CSCc1ccnc(N)c1` [Example 22, 2-Amino-4-methylthiomethylpyridine], for which the half-maximal inhibitory concentration (IC50) on ncNOS (setting [4]) is over 50 µM; at ecNOS (setting [5]) it was over 50 µM; on iNOS (setting [6]), under 50 µM.
Take `Cc1ccnc(N)c1CO` [Example 23, 2-Amino-3-hydroxymethyl-4-picoline]: the IC50 on ecNOS (setting [5]) and on iNOS (setting [6]) was under 1 µM each time.
With `CCc1c(C)ccnc1N` [Example 24, 2-Amino-3-ethyl-4-picoline dihydrochloride], the half-maximal inhibitory concentration (IC50) at ecNOS (setting [5]) and at iNOS (setting [6]) was under 10 µM each time.
Consider `COCc1c(C)ccnc1N` [Example 25, 2-Amino-3-methoxymethyl-4-picoline dihydrochloride], for which the values for the IC50 on ncNOS (setting [4]), on ecNOS (setting [5]) and on iNOS (setting [6]) were under 50 µM, under 50 µM and under 10 µM, respectively.
Take `CCCc1c(C)ccnc1N` [Example 26, 2-Amino-3-n-propyl-4-picoline dihydrochloride]: the half-maximal inhibitory concentration (IC50) on iNOS (setting [6]) is under 50 µM.
As to `Cc1ccnc(N)c1N(C)C` [Example 27, 2-Amino-3-dimethylamino-4-picoline trihydrochloride], the IC50 at ncNOS (setting [4]) is under 50 µM; on ecNOS (setting [5]) it was over 50 µM; on iNOS (setting [6]) it was under 50 µM.
Take `Cc1ccnc(N)c1Cl` [Example 28, 2-Amino-3-chloro-4-picoline]: the IC50 was under 10 µM on ncNOS (setting [4]), under 10 µM on ecNOS (setting [5]) and under 1 µM at iNOS (setting [6]).
Turning to `Cc1cc(N)ncc1Cl` [Example 29, 2-Amino-5-chloro-4-picoline], the IC50 is under 50 µM on ncNOS (setting [4]), under 50 µM on ecNOS (setting [5]) and under 10 µM on iNOS (setting [6]).
`Cc1cc(N)ncc1N` [Example 30, 2.5-Diamino-4-picoline]: the figures for the IC50 against ncNOS, on ecNOS and against iNOS were under 50 µM, under 50 µM and under 10 µM, respectively.
Consider `CC(=O)Nc1cnc(N)cc1C` [Example 31, 5-Acetylamino-2-amino-4-picoline], for which the IC50 at ncNOS (setting [4]) was under 50 µM; on ecNOS (setting [5]), under 50 µM; at iNOS (setting [6]) it was under 10 µM.
`C#Cc1cnc(N)cc1C` [Example 32, 2-Amino-5-ethynyl-4-methyl-pyridine]: the figures for the IC50 on ncNOS (setting [4]), on ecNOS (setting [5]) and on iNOS (setting [6]) were under 50 µM, under 50 µM and under 10 µM, respectively.
For the compound `CCCCCc1cnc(N)cc1C` [Example 33, 2-Amino-4-methyl-5-pentyl-pyridine], the IC50 on ncNOS (setting [4]) was under 10 µM; on ecNOS (setting [5]) it was over 50 µM; at iNOS (setting [6]), under 50 µM.
The like results for `COc1ccnc(N)c1` [Example 34, 4-Methoxy-2-aminopyridine] were, in that order, under 10 µM, under 10 µM and under 10 µM.
On the same counts, the results for `CSc1ccnc(N)c1` [Example 35, 4-Methylthio-2-aminopyridine] are under 10 µM, under 50 µM and under 50 µM.
The like results for `COC(=O)c1cc(Cl)cc(N)n1` [Example 36, 4-Chloro-6-methoxycarbonyl-2-aminopyridine] were, in that order, over 50 µM, over 50 µM and under 50 µM.
On to `C=Cc1c(C)cc(N)nc1C` [Example 37, 4,6-Dimethyl-5-ethenyl-2-aminopyridine], for which the IC50 at ncNOS (setting [4]) is under 1 µM; at ecNOS (setting [5]), under 10 µM; on iNOS (setting [6]), under 10 µM.
In the case of `Nc1ccnc(N)c1` [Example 38, 2,4-Diaminopyridine dihydrochloride], the IC50 on ncNOS (setting [4]) was under 50 µM; at ecNOS (setting [5]), under 50 µM; at iNOS (setting [6]), under 10 µM.
`Nc1ccc(-c2ccccc2)cn1` [Example 39, 2-Amino-5-phenylpyridine]: the IC50 on iNOS (setting [6]) was over 50 µM.
For the compound `Cc1cc(N)ncc1-c1ccccc1` [Example 40, 2-Amino-4-methyl-5-phenylpyridine], at iNOS (setting [6]), the IC50 was over 50 µM.
`Cc1cc(N)ncc1Br` [Example 41, 2-Amino-5-bromo-4-methylpyridine]: the concentration for half-maximal inhibition (IC50) at ncNOS (setting [4]), at ecNOS (setting [5]) and at iNOS (setting [6]) was under 10 µM each time.
Regarding `Cc1cc(N)ncc1C#N` [Example 42, 2-Amino-5-cyano-4-methylpyridine], on iNOS (setting [6]), the IC50 was over 50 µM.
Still for that read-out and setting: with `COC(=O)c1cnc(N)cc1C` [Example 44, 2-Amino-5-methoxycarbonyl-4-methylpyridine] the figure was over 50 µM.
The same measure, in the same setting: the value for `Cc1cc(N)ncc1CO` [Example 47, 2-Amino-5-hydroxymethyl-4-methylpyridine] was under 10 µM.
On to `CCc1ccc(N)nc1` [Example 60, 2-Amino-5-ethylpyridine], for which the values for the IC50 at ecNOS (setting [5]) and at iNOS (setting [6]) were under 50 µM and under 10 µM, respectively.
On to `Nc1cc2c(cn1)CCCC2` [Example 64, 3-Amino-5,6,7,8-tetrahydroisoquinoline], for which, at iNOS (setting [6]), the IC50 is under 10 µM.
